Source: PMC9516332 (Frontiers in Oncology, 2022)
Like-named read-outs stand apart in the source and are kept apart here.

System: 134 cancer cell lines
Assay: Cell viability assay (ATPlite, 72 hours), IC50 on cancer cell line panel

In the case of `COC(=O)N[C@@H](C)CNc1nccc(-c2cn(C(C)C)nc2-c2cc(Cl)cc(NS(C)(=O)=O)c2F)n1` [encorafenib], the IC50 (HEC-6, read-out: IC50 in cell proliferation assay, HEC-6 cell line (EGFR p.A289V)) is reported as 1240 nM, the IC50 (Homo sapiens, 769-P, read-out: IC50 in cell proliferation assay, cell line 769-P) is reported as 1190 nM and the IC50 (Homo sapiens, 786-0, read-out: IC50 in cell proliferation assay, cell line 786-O) is reported as 1390 nM. The IC50 (Homo sapiens, A 172, read-out: IC50 in cell proliferation assay, cell line A-172) was 1780 nM, the IC50 (Homo sapiens, A204, read-out: IC50 in cell proliferation assay, cell line A-204) was 1050 nM and the IC50 (Homo sapiens, A498, read-out: IC50 in cell proliferation assay, cell line A-498) was 527 nM. For the same molecule, the IC50 (Homo sapiens, A549, read-out: IC50 in cell proliferation assay, cell line A-549) was 1220 nM, the IC50 (Homo sapiens, A704, read-out: IC50 in cell proliferation assay, cell line A-704) was 5460 nM and the IC50 (Homo sapiens, A-375, read-out: IC50 in cell proliferation assay, cell line A-375 (BRAF p.V600E)) was 9 nM. The IC50 (Homo sapiens, A-427, read-out: IC50 in cell proliferation assay, cell line A-427) was 840 nM, the IC50 (Homo sapiens, ACHN, read-out: IC50 in cell proliferation assay, cell line ACHN) was 624 nM and the IC50 (Homo sapiens, AN3-CA, read-out: IC50 in cell proliferation assay, cell line AN3-CA (FGFR2 p.N549K)) was 623 nM. The IC50 (Homo sapiens, ASPC1, read-out: IC50 in cell proliferation assay, cell line AsPC-1) was 2880 nM, the IC50 (Homo sapiens, AU565, read-out: IC50 in cell proliferation assay, cell line AU565 (ERBB2 amplification)) was 421 nM and the IC50 (Homo sapiens, BT-20, read-out: IC50 in cell proliferation assay, cell line BT-20) was > 31600 nM. The IC50 (Homo sapiens, BT-474, read-out: IC50 in cell proliferation assay, cell line BT-474 (ERBB2 amplification)) was > 31600 nM, the IC50 (Homo sapiens, BT-549, read-out: IC50 in cell proliferation assay, cell line BT-549) was 1020 nM and the IC50 (Homo sapiens, BXPC-3, read-out: IC50 in cell proliferation assay, cell line BxPC-3) was 408 nM. For the same molecule, the IC50 (Homo sapiens, C-33-A, read-out: IC50 in cell proliferation assay, cell line C-33 A) was 922 nM, the IC50 (Homo sapiens, CAL-27, read-out: IC50 in cell proliferation assay, cell line CAL-27) was 6980 nM and the IC50 (Homo sapiens, CCF-STTG1, read-out: IC50 in cell proliferation assay, cell line CCF-STTG1) was > 31600 nM. For the same molecule, the IC50 (Homo sapiens, CCRF-CEM, read-out: IC50 in cell proliferation assay, cell line CCRF-CEM) was > 31600 nM, the IC50 (Homo sapiens, COLO 205, read-out: IC50 in cell proliferation assay, cell line COLO 205 (BRAF p.V600E)) was 3.32 nM and the IC50 (Homo sapiens, COLO-829, read-out: IC50 in cell proliferation assay, cell line COLO 829 (BRAF p.V600E)) was 9 nM. For the same molecule, the IC50 (Homo sapiens, DLD-1, read-out: IC50 in cell proliferation assay, cell line DLD-1) was 1650 nM, the IC50 (Homo sapiens, DU-4475, read-out: IC50 in cell proliferation assay, cell line DU4475 (BRAF p.V600E)) was 8 nM and the IC50 (Homo sapiens, Daoy, read-out: IC50 in cell proliferation assay, cell line Daoy) was > 31600 nM. The IC50 (Homo sapiens, DoTc2-4510, read-out: IC50 in cell proliferation assay, cell line DoTc2 4510) was 3280 nM, the IC50 (Homo sapiens, EOL1, read-out: IC50 in cell proliferation assay, cell line EoL-1 (FIP1L1-PDGFRA)) was 2340 nM and the IC50 (Homo sapiens, FaDu, read-out: IC50 in cell proliferation assay, cell line FaDu) was 964 nM. The IC50 (Homo sapiens, G-361, read-out: IC50 in cell proliferation assay, cell line G-361 (BRAF p.V600E)) was 13 nM, the IC50 (Homo sapiens, HCC827, read-out: IC50 in cell proliferation assay, cell line HCC827 (EGFR exon19del)) was 893 nM and the IC50 (Homo sapiens, HCC4006, read-out: IC50 in cell proliferation assay, cell line HCC4006 (EGFR exon19del)) was > 31600 nM. For the same molecule, the IC50 (Homo sapiens, HCT-15, read-out: IC50 in cell proliferation assay, cell line HCT 15) was 2940 nM, the IC50 (Homo sapiens, HCT-116, read-out: IC50 in cell proliferation assay, cell line HCT 116) was 1150 nM and the IC50 (Homo sapiens, HEC-1, read-out: IC50 in cell proliferation assay, HEC-1 cell line) was 1570 nM. For the same molecule, the IC50 (Homo sapiens, HEC-1B, read-out: IC50 in cell proliferation assay, HEC-1-B cell line (EGFR p.A864V)) was 2100 nM, the IC50 (Homo sapiens, HL-60, read-out: IC50 in cell proliferation assay, HL-60 cell line) was 1800 nM and the IC50 (Homo sapiens, HT, read-out: IC50 in cell proliferation assay, HT cell line) was > 31600 nM. For the same molecule, the IC50 (Homo sapiens, HT-1080, read-out: IC50 in cell proliferation assay, HT-1080 cell line) was 381 nM, the IC50 (Homo sapiens, Hs746T, read-out: IC50 in cell proliferation assay, Hs 746.T cell line (MET exon14skip + amplification)) was 1120 nM and the IC50 (Homo sapiens, Hs-578T, read-out: IC50 in cell proliferation assay, Hs 578T cell line) was 1030 nM. It also gave an IC50 (Homo sapiens, HuTu80, read-out: IC50 in cell proliferation assay, HuTu 80 cell line) of 1120 nM, an IC50 (Homo sapiens, J82, read-out: IC50 in cell proliferation assay, J82 cell line) of 949 nM and an IC50 (Homo sapiens, Jurkat E6.1, read-out: IC50 in cell proliferation assay, Jurkat E6.1 cell line) of 1040 nM. It also gave an IC50 (Homo sapiens, K562, read-out: IC50 in cell proliferation assay, K-562 cell line) of 27600 nM, an IC50 (Homo sapiens, KATO III, read-out: IC50 in cell proliferation assay, KATO III cell line (FGFR2 amplification)) of 1510 nM and an IC50 (Homo sapiens, KG-1, read-out: IC50 in cell proliferation assay, KG-1 cell line (FGFR1OP2-FGFR1)) of 1440 nM. For the same molecule, the IC50 (Homo sapiens, KLE, read-out: IC50 in cell proliferation assay, KLE cell line) was 822 nM, the IC50 (Homo sapiens, KMS-11, read-out: IC50 in cell proliferation assay, KMS-11 cell line (FGFR3 p.Y373C)) was 3390 nM and the IC50 (Homo sapiens, KU812, read-out: IC50 in cell proliferation assay, Ku812 cell line) was 2570 nM. It also gave an IC50 (Homo sapiens, Kasumi 1, read-out: IC50 in cell proliferation assay, Kasumi-1 cell line (KIT p.N822K)) of 3020 nM, an IC50 (Homo sapiens, LC-2-ad, read-out: IC50 in cell proliferation assay, LC-2/ad cell line (CCDC6-RET)) of 1530 nM and an IC50 (Homo sapiens, LNCaP-Clone-FGC, read-out: IC50 in cell proliferation assay, LNCaP clone FGC cell line) of 2150 nM. For the same molecule, the IC50 (Homo sapiens, LS174T, read-out: IC50 in cell proliferation assay, LS174T cell line) was 1700 nM, the IC50 (Homo sapiens, LS-411N, read-out: IC50 in cell proliferation assay, LS411N cell line (BRAF p.V600E)) was 6 nM and the IC50 (Homo sapiens, LoVo, read-out: IC50 in cell proliferation assay, LoVo cell line) was 2500 nM. The IC50 (Homo sapiens, MCF7, read-out: IC50 in cell proliferation assay, MCF-7 cell line) was > 31600 nM, the IC50 (Homo sapiens, MDA-MB-231, read-out: IC50 in cell proliferation assay, MDA-MB-231 cell line) was 2420 nM and the IC50 (Homo sapiens, MDA-MB-453, read-out: IC50 in cell proliferation assay, MDA-MB-453 cell line) was > 31600 nM. The IC50 (Homo sapiens, MDA-MB-468, read-out: IC50 in cell proliferation assay, MDA-MB-468 cell line) was > 31600 nM, the IC50 (Homo sapiens, MG-63, read-out: IC50 in cell proliferation assay, MG-63 cell line) was > 31600 nM and the IC50 (Homo sapiens, MIA PaCa-2, read-out: IC50 in cell proliferation assay, MIA PaCa-2 cell line) was 1240 nM. The IC50 (Homo sapiens, MKN-45, read-out: IC50 in cell proliferation assay, MKN45 cell line (MET amplification)) was 3810 nM, the IC50 (Homo sapiens, MOLM-13, read-out: IC50 in cell proliferation assay, MOLM-13 cell line (FLT3 ITD)) was 1070 nM and the IC50 (Homo sapiens, MOLT-4, read-out: IC50 in cell proliferation assay, MOLT-4 cell line) was 1670 nM. It also gave an IC50 (Homo sapiens, MV4-11, read-out: IC50 in cell proliferation assay, MV4-11 cell line (FLT3 ITD)) of 2280 nM.
